22 compounds from patent publication US12037329B2, “SphK inhibitors and methods of making and using same” (Washington University, priority 2021, dated 2024) can be followed below.

pIC50: −log10 of the molar value. Entries after “also recorded” stand apart in the source; their conditions may differ. Counter-ions that a name gives are not always drawn. Like-named read-outs stand apart in the source and are kept apart here.

For one series, the target named is SphK2 (Homo sapiens (Human), UniProt Q9NRA0). As to the kind of experiment: ADP-Glo kinase assay, SphK2. The class given is biochemical. As to conditions: for pIC50: ADP-Glo assay, 50 μM ATP, recombinant human SphK2; for selectivity/specificity for SphK2 over SphK1: 125 μM of each compound, SphK2 versus SphK1, FIG. 5. An excerpt:
The bioluminescence-based kinase assay such as ADP-Glo assay measures ADP formed from a kinase reaction with a luciferase. Upon the completion of a kinase reaction, the remaining ATP is depleted, the ADP produced in the kinase reaction is then converted to ATP and the detection is based on a sensitive and robust bioluminescence reaction. It has a broad linear range of ATP concentrations and high dynamic range. To determine the inhibition activity of the compounds, the ADP-Glo kinase assay was used which was able to detect down to 20% of 1 μM ATP to ADP conversion (FIG. 4A).
ADP-Glo (Promega, Madison, WI) kinase assay were used to evaluate the kinase activity of SphK. ATP to ADP standard curves were prepared in the kinase buffer to assess the linearity of the assay in order to calculate the amount of ADP produced in each tested conditions (FIG. 4A). SB10 (tenfold signal to background ra-tio) of SphK was also determined to evaluate the enzyme perfor-mance and to optimize the kinase reaction condition in this system. In brief, for SphK2, […], 100 μM of D-erythro-Sphingosine (Tocris Bioscience, Minneapolis, MN), and 2 ng of recombinant human SphK2 (R&D Systems, Minneapolis, MN) with desired concentration of each synthesized compound were used for SphK2 kinase reaction. For SphK1, exact same reaction condition was used except 0.5 ng of recombinant human SphK1 was used.
To evaluate the SphK selectivity of each compound, 125 μM of each compound in reaction buffer ([…] Tris, pH 8.0, […] MgCl2, and 0.1 mg/mL BSA) with 5% DMSO was incubated with either SphK1 or SphK2 in a 384-well solid white low volume microplate (Corning, Corning, NY), and the reaction was initiated by adding mixture of ATP and D-erythro-Sphingosine to a total volume of 5 μL, after 1 h incubation at room temperature with gentle shaking, the reaction was stopped by adding equal volume of ADP-Glo buffer and incubated for another hour to remove excess amount of ATP from the reaction. Afterwards, 10 μL of kinase detection reagent was added, mixed, and incubated for 30 min under dark. Luminescence output was recorded using a SpectraMax M5 Multi-Mode Microplate Readers (Molecular Devices, San Jose, CA), an integration time of 500 ms was used. All reactions were performed in triplicate. The enzyme activity of SphK in the presence of each compound was normalized to the no treatment control. […] The final data was calculated using Prism 7.0 (GraphPad Software, La Jolla, CA), IC50 was determined using Nonlinear regression (curve fit) four parameters dose-response calculations.
In general terms: In ADP-Glo the light output rises with the ADP produced.

The subject of series [1] is U-251 MG human glioblastoma cells. As to the kind of experiment: U-251 MG cell viability, Hoechst 33258/propidium iodide imaging, 125 μM, 24 h. The class given is cell-based. How it is done:
Cells were seeded into a 96-well microplate (Corning, Corning, NY) at 3000 cells/well and incubated for approximately 16 h. […] Cells were imaged using MetaXpress High-Content Image Acquisition and Analysis Software 6.1 and ImageXpress Micro XLS Wide-field High-Content Analysis System (Molecular Devices, San Jose, CA). Images were taken with a Nikon 10 CFI Plan Fluor objective. For all samples, triplicated measurements were performed.

The test system of a further series is U-251 MG cells. As to the kind of experiment: CellTiter96 MTS cell viability dose response, U-251 MG. The conditions noted are these: read-out: IC50 (cell viability). Type of series: cell-based, human. How it is done:
The anti-tumor activity of these inhibitors was further examined at different doses.
Cell viability was determined using CellTiter96 MTS Assay and compared to DMSO treated control cells. IC50 values were calculated by non-linear regression analysis of the dose-response curve using GraphPad Prism version 8.00 for Windows (GraphPad Software).

Sequence of SphK2 (Q9NRA0 whole entry): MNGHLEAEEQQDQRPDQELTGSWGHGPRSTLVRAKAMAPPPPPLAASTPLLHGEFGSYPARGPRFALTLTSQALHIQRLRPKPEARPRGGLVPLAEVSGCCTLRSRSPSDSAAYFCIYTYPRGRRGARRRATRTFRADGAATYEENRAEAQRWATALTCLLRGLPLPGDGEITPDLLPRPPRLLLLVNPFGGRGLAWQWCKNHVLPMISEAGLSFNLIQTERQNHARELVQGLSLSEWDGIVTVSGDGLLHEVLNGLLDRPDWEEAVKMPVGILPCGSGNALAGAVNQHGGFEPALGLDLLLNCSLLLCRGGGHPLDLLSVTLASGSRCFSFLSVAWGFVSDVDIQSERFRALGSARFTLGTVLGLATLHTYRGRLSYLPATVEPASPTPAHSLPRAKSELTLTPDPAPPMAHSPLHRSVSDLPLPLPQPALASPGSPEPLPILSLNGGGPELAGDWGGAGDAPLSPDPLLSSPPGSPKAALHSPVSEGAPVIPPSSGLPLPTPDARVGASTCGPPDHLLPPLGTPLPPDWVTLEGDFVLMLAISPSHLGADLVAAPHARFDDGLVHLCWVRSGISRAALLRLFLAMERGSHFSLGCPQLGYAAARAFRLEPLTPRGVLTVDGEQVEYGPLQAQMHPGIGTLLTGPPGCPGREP

For `N=C(N)N1CCC[C@H]1c1nc(-c2ccc(Cn3cc(-c4ccc(F)cc4)nn3)cc2)no1` [Compound 25g, (S)-2-((3-(4-((4-(4-Fluorophenyl)-1H-1,2,3-triazol-1-yl)methyl)phenyl)-1,2,4-oxadiazol-5-yl)-pyrrolidine-1-carboximidamide hydrochloride], the pIC50 at SphK2 was 6.41.

Take `N=C(N)N1CCC[C@H]1c1nc(-c2ccc(Cn3cc(-c4cccs4)nn3)cc2)no1` [Compound 25e, (S)-2-((3-(4-((4-(Thiophen-2-yl)-1H-1,2,3-triazol-1-yl)methyl)phenyl)-1,2,4-oxadiazol-5-yl)-pyrrolidine-1-carboximidamide hydrochloride]: the pIC50 on SphK2 was 6.16.

Turning to `Cl.N=C(N)N1CCC[C@H]1c1nc(-c2ccc(Cn3cc(-c4ccc(C(F)(F)F)cc4)nn3)cc2)no1` [Compound 25b], in series [1] (hydrochloride), the “antitumor activity / reduction of U-251 MG cell viability (in words)” value (shortened to “antitumor activity / reduction”) is recorded as “high anti-tumor activity; also recorded: higher antitumor activity; also recorded: tremendously decreased; also recorded: significant reduction”.

With `N=C(N)C1(c2nc(-c3ccc(Cn4cc(C5CC5)nn4)cc3)no2)CC1` [Compound 29c, 1-(3-(4-((4-Cyclopropyl-1H-1,2,3-triazol-1-yl)methyl)phenyl)-1,2,4-oxadiazol-5-yl)cyclopropanecarboximidamide hydrochloride], the negative-log IC50 (pIC50) on SphK2 is 6.14.

In the case of `Cl.N=C(N)N1CCC[C@H]1c1nc(-c2ccc(Cn3cc(-c4ccc(C(F)(F)F)cc4)nn3)cc2)no1` [Compound 25b, (S)-2-((3-(4-((4-(4-(Trifluoromethyl)phenyl)-1H-1,2,3-triazol-1-yl)methyl)phenyl)-1,2,4-oxadiazol-5-yl)pyrrolidine-1-carboximidamide hydrochloride], the pIC50 with U-251 MG cells (U-251 MG cells, 72 h, MTS) was 4.91; on SphK2, 6.44.

`Cn1cc(-c2cn(Cc3ccc(-c4noc(C5(C(=N)N)CC5)n4)cc3)nn2)cn1` [Compound 29b, hydrochloride]: at SphK2, the “selectivity/specificity for SphK2 over SphK1” value (“selectivity/specificity” for short) was “highly selective”.

Turning to `COc1ccc(-c2cn(Cc3ccc(-c4noc([C@@H]5CCCN5C(=N)N)n4)cc3)nn2)cc1.Cl` [Compound 25d], in series [1], the “antitumor activity / reduction” value is “comparable reduction”.

For the compound `Cl.N=C(N)N1CCC[C@H]1Cc1nc(-c2ccc(Cn3cc(C4CC4)nn3)cc2)no1` [Compound 21f, (S)-2-((3-(4-((4-Cyclopropyl-1H-1,2,3-triazol-1-yl)methyl)phenyl)-1,2,4-oxadiazol-5-yl)methyl)pyrrolidine-1-carboximidamide hydrochloride], the “SphK2 inhibitory activity (in words)” value at SphK2 is recorded as “no inhibitory activity”. Further, the “selectivity/specificity” value on SphK2 (hydrochloride) was “lowest specificity; also recorded: no selectivity”.

With `Cl.N=C(N)N1CCC[C@H]1Cc1nc(-c2ccc(Cn3cc(-c4ccccn4)nn3)cc2)no1` [Compound 21c, (S)-2-((3-(4-((4-(Pyridin-2-yl)-1H-1,2,3-triazol-1-yl)methyl)phenyl)-1,2,4-oxadiazol-5-yl)methyl)pyrrolidine-1-carboximidamide hydrochloride], the “selectivity/specificity” value on SphK2 (hydrochloride) is given as “high selectivity; also recorded: highest specificity”. For the same compound, the pIC50 on SphK2 is 6.34.

Consider `Cl.N=C(N)N1CCC[C@H]1c1nc(-c2ccc(Cn3cc(C4CC4)nn3)cc2)no1` [Compound 25h, (S)-2-((3-(4-((4-Cyclopropyl-1H-1,2,3-triazol-1-yl)methyl)phenyl)-1,2,4-oxadiazol-5-yl)pyrrolidine-1-carboximidamide hydrochloride], for which the pIC50 at SphK2 was 6.61.

With `Cl.N=C(N)N1CCC[C@H]1c1nc(-c2ccc(Cn3cc(-c4ccccn4)nn3)cc2)no1` [Compound 25c, (S)-2-(3-(4-((4-(Pyridin-2-yl)-1H-1,2,3-triazol-1-yl)methyl)phenyl)-1,2,4-oxadiazol-5-yl)pyrrolidine-1-carboximidamide hydrochloride], the “selectivity/specificity” value at SphK2 is reported as “lowest specificity”. In addition, the pIC50 on SphK2 (hydrochloride) is 6.05.

With `COc1ccc(-c2cn(Cc3ccc(-c4noc([C@@H]5CCCN5C(=N)N)n4)cc3)nn2)cc1.Cl` [Compound 25d, (S)-2-((3-(4-((4-(4-Methoxyphenyl)-1H-1,2,3-triazol-1-yl)methyl)phenyl)-1,2,4-oxadiazol-5-yl)-pyrrolidine-1-carboximidamide hydrochloride], the pIC50 in the series on U-251 MG cells (U-251 MG cells, 72 h, MTS) is 4.11; at SphK2, 6.58.

With `Cl.N=C(N)N1CCC[C@H]1Cc1nc(-c2ccc(Cn3cc(-c4ccccc4)nn3)cc2)no1` [Compound 21a, (S)-2-((3-(4-((4-Phenyl-1H-1,2,3-triazol-1-yl)methyl)phenyl)-1,2,4-oxadiazol-5yl)methyl)pyrrolidine-1-carboximidamide hydrochloride], the pIC50 is 4.77 with U-251 MG cells (Homo sapiens, U-251, 72 h) and 6.40 at SphK2. Moreover, the “antitumor activity / reduction” value in series [1] (hydrochloride) is given as “high anti-tumor activity; also recorded: significant reduction”.

Take `CCCCc1cn(Cc2ccc(-c3noc(C[C@@H]4CCCN4C(=N)N)n3)cc2)nn1.Cl` [Compound 21d, (S)-2-((3-(4-((4-Butyl-1H-1,2,3-triazol-1-yl)methyl)phenyl)-1,2,4-oxadiazol-5-yl)methyl)pyrrolidine-1-carboximidamide hydrochloride]: the “SphK2 inhibitory activity (in words)” value on SphK2 was “no inhibitory activity”. Also, the “selectivity/specificity” value at SphK2 (hydrochloride) is “lowest specificity; also recorded: no selectivity”.

For `Cl.N=C(N)N1CCC[C@H]1c1nc(-c2ccc(Cn3cc(C4CC4)nn3)cc2)no1` [Compound 25h], the “selectivity/specificity” value on SphK2 is “high selective”.

Regarding “ABC294640 [Compound 7, reference compound]”, in series [1] (versus no treatment control), the “reduction of viability of U-251 MG cells” value was “approximately 50%”.

For `COc1ccc(-c2cn(Cc3ccc(-c4noc(C[C@@H]5CCCN5C(=N)N)n4)cc3)nn2)cc1.Cl` [Compound 21e, (S)-2-((3-(4-((4-(4-Methoxyphenyl)-1H-1,2,3-triazol-1-yl)methyl)phenyl)-1,2,4-oxadiazol-5-yl)methyl)pyrrolidine-1-carboximidamide hydrochloride], at SphK2 (hydrochloride), the “selectivity/specificity” value is given as “high selectivity; also recorded: highest specificity”. Further, the pIC50 on SphK2 was 6.19. In series [1], the “antitumor activity / reduction” value was “comparable reduction”.

With `Cn1nccc1-c1cn(Cc2ccc(-c3noc(C4(C(=N)N)CC4)n3)cc2)nn1` [Compound 29b, hydrochloride], the pIC50 on SphK2 was 6.57.

`Cl.N=C(N)C1(c2nc(-c3ccc(Cn4cc(-c5ccccc5)nn4)cc3)no2)CC1` [Compound 29a, 1-(3-(4-((4-Phenyl-1H-1,2,3-triazol-1-yl)methyl)phenyl)-1,2,4-oxadiazol-5-yl)cyclopropanecarboximidamide hydrochloride]: on SphK2, the “selectivity/specificity” value is “highly selective” and the pIC50 is 6.58.

Turning to `CCCCc1cn(Cc2ccc(-c3noc([C@@H]4CCCN4C(=N)N)n3)cc2)nn1.Cl` [Compound 25f, (S)-2-((3-(4-((4-Butyl-1H-1,2,3-triazol-1-yl)methyl)phenyl)-1,2,4-oxadiazol-5-yl)pyrrolidine-1-carboximidamide hydrochloride], the pIC50 on SphK2 is 6.60.

For the compound `Cl.Cn1cc(-c2cn(Cc3ccc(-c4noc(C[C@@H]5CCCN5C(=N)N)n4)cc3)nn2)cn1` [Compound 21g, (S)-2-((3-(4-((4-(1-Methyl-1H-pyrazol-4-yl)-1H-1,2,3-triazol-1-yl)methyl)phenyl)-1,2,4-oxadiazol-5-yl)methyl)pyrrolidine-1-carboximidamide hydrochloride], the “selectivity/specificity” value on SphK2 (hydrochloride) was “high selectivity; also recorded: highest specificity”. Besides, the pIC50 at SphK2 is 6.63.

As for `CCCCc1cn(Cc2ccc(-c3noc([C@@H]4CCCN4C(=N)N)n3)cc2)nn1.Cl` [Compound 25f], on SphK2, the “selectivity/specificity” value is listed as “high selective”.

What is called pIC50 is the negative decadic logarithm of the IC50, by convention in mol/L.
